What all share (type): cell-based
In one experiment the target is T1, Human TRPML2 (Homo sapiens, UniProt Q8IZK6).
T1 construct: expressed in transfected cells
T1 sequence (Q8IZK6 1-566): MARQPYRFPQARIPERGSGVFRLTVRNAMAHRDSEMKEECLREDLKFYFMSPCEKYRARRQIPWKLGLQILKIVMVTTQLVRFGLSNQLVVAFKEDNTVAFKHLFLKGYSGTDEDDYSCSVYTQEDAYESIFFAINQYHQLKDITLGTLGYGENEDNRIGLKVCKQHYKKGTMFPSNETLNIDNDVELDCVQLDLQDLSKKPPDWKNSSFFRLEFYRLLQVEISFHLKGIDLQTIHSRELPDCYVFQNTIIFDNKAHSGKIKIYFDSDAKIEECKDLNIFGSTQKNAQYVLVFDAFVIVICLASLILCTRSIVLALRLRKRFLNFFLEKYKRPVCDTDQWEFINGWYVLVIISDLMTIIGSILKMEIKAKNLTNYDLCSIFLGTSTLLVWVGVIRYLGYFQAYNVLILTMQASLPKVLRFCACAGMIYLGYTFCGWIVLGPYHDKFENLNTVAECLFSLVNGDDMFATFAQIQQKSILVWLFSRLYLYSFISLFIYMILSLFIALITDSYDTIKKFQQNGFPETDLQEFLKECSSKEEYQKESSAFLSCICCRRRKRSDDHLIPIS
The experiment in a line: Fluorescent TRPML2 assay (as for TRPML1). The settings on record: fluorescent calcium assay as for TRPML1, TRPML2 subtype. The protocol:
HEK-293 Trex cells were stably transfected with a construct consisting of the human coding sequence for TRPML1 cloned into the tet-inducible plasmid pCDNA5 T/O. Mutations were introduced into the TRPML1 sequence to facilitate expression on the cell surface (Silvia Vergarajauregui, Rosa Puertollano Traffic. 2006 March; 7(3): 337-353). Briefly, the cells are cultured in 150 mm round tissue culture dishes containing 20 mL of media. The day before the assay the cells are rinsed with DPBS-Ca-Mg and then treated briefly with Trypsin-EDTA. The Trypsin-EDTA is diluted with growth media, and cells are counted. 38×10^6 cells are re-plated into 150 mm round tissue culture dishes in media containing 0.5 μg/mL doxycycline to induce expression of hTRPML1.
The day of the experiment cells are lifted from the plates as above and collected by centrifugation. The cells are then suspended in dye loading buffer consisting of Ringer's solution supplemented with 0.1% Pluronic Acid and 1 micromolar Fluo4-AM dye. Cells are loaded for ~60 minutes in the dark with occasional mixing. The cells are collected by centrifugation, the loading media aspirated, and the cells resuspended in 25 mL Ringer's solution and incubated ~60 minutes in the dark. The cells are again collected by centrifugation, rinsed in Ringer's Solution and resuspended to 0.2×10^6 cells/mL in modified Ringer's solution containing 10 mM calcium.
Compounds are dissolved to a concentration of 10 millimolar with DMSO. Compound plates are created by dispensing compounds into 384 well black wall clear bottom plates (Greiner 781091). Positive and negative controls are included on each plate. Typically, different amounts of each compound are tested ranging from 100 nanoMoles (20 micromolar final concentration) decreasing in half-log steps to 31 picoMoles (6 nanomolar final concentration). Each concentration is typically tested in triplicate.
50 microliters of dye-loaded cells are dispensed into each well of the compound assay plate created above. The fluorescence in each well is then determined with an excitation wavelength of 480 nm and an emission wavelength of 540 nm using either a Molecular Devices SpectraMax multimode plate reader or a Hamamatsu FDSS/uCell plate imager.
The resulting fluorescence for each well is exported as an ascii file and loaded into our LIMS for analysis. The percent activity of each compound at each concentration is determined by comparison to the positive and negative control wells included in each plate.
Assays for TRPML2 and TRPML3 were performed as above for TRPML1, by substituting the appropriate TRPML2 or TRPML3 subtype for the TRPML1.
EC50 values were calculated using a non-linear regression of Prism. In the table, “A” indicates an EC50 of less than 100 nM, “B” indicates an EC50 range from 100 nM to 500 nM: “C” indicates an EC50 range from 500 nM to 2 μM; and “D” indicates an EC50 greater than 2 μM.

The next experiment deals with T2, Human TRPML3 (Homo sapiens, UniProt Q8TDD5).
T2 construct: expressed in transfected cells
T2 sequence (Q8TDD5 1-553): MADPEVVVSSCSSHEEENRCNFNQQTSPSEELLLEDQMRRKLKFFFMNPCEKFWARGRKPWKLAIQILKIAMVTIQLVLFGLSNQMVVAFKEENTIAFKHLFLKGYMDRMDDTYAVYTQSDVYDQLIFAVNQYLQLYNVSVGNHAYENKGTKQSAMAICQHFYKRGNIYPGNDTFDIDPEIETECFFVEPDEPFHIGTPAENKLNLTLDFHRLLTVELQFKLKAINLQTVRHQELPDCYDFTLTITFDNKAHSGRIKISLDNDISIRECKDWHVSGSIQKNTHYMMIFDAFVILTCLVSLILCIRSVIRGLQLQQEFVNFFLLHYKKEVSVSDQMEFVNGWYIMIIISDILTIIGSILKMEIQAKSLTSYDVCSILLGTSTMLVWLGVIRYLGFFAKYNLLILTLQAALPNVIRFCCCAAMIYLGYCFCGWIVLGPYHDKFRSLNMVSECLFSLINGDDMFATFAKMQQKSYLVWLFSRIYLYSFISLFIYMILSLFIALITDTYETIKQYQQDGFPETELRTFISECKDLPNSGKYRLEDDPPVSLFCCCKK
Description: Fluorescent TRPML3 assay (as for TRPML1). The settings on record: fluorescent calcium assay as for TRPML1, TRPML3 subtype. In short, it runs like this: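 Tet-inducible HEK-293 Trex cells expressing human TRPML2 or TRPML3, induced overnight with 0.5 μg/mL doxycycline, loaded with 1 μM Fluo4-AM and suspended in Ringer's solution with 10 mM calcium. Compounds tested in triplicate from 20 μM to 6 nM final in half-log steps; fluorescence at 480/540 nm. EC50 by non-linear regression, binned A–D.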

Another experiment concerns the target Human TRPML1 (Homo sapiens, UniProt Q9GZU1, L15A/L16A/L577A/L578A). Description: Fluorescent TRPML1 assay (Fluo4-AM, HEK-293 Trex cells expressing hTRPML1). The settings on record: fluorescent calcium assay, doxycycline-induced hTRPML1. In short, it runs like this:
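Doxycycline-induced (0.5 μg/mL) HEK-293 Trex cells stably expressing surface-targeted mutant hTRPML1, loaded with 1 μM Fluo4-AM, then suspended in modified Ringer's with 10 mM calcium and added to compounds (20 μM to 6 nM final, half-log steps, triplicate). Fluorescence read at ex 480/em 540; percent activity versus plate controls, EC50 by non-linear regression.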

pEC50: −log10 of the molar value.

For orientation: pEC50 means the EC50 on a negative log10 scale, so that one unit is a factor of ten.

Sequence of Human TRPML1 (Q9GZU1 whole entry L15A/L16A/L577A/L578A): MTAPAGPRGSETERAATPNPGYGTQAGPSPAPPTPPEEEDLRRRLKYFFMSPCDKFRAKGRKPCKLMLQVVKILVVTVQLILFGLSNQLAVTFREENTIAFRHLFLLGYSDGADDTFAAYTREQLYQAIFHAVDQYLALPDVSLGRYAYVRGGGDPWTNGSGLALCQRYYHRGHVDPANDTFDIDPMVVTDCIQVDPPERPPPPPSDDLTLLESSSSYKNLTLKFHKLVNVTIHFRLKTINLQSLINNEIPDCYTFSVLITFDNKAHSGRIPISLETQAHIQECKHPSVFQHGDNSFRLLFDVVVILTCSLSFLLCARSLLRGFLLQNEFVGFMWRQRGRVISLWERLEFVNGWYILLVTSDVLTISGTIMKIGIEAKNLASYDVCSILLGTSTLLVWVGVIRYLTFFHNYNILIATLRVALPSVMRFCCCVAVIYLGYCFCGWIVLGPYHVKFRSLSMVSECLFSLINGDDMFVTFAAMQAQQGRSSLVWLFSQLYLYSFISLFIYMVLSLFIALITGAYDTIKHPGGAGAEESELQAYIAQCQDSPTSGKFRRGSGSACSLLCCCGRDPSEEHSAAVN

`CC[C@H]1CN(C(=O)C(C)(C)O)[C@H](C)CN1c1ncnc2c1c(-c1ccccc1)cn2-c1cc(C#N)ccn1` [Compound 129, 2-(4-((2S,5R)-2-ethyl-4-(2-hydroxy-2-methylpropanoyl)-5-methylpiperazin-1-yl)-5-phenyl-7H-pyrrolo[2,3-d]pyrimidin-7-yl)isonicotinonitrile]: the figures for the negative-log EC50 (pEC50) on Human TRPML2, at Human TRPML3 and at Human TRPML1 were under 5.70, 6.30 to 7.00 and over 7.00, respectively.

`C[C@@H]1CN(c2ncnc3c2c(-c2ccccc2F)cn3-c2cc(C#N)ccn2)[C@@H](C)CN1C(=O)CC(C)(C)O` [Compound 158, 2-(5-(2-fluorophenyl)-4-((2S,5R)-4-(3-hydroxy-3-methylbutanoyl)-2,5-dimethylpiperazin-1-yl)-7H-pyrrolo[2,3-d]pyrimidin-7-yl)isonicotinonitrile]: the figures for the pEC50 on Human TRPML2, at Human TRPML3 and at Human TRPML1 were under 5.70, over 7.00 and 6.30 to 7.00, respectively.

As for `CCOC(C)(C)C(=O)N1C[C@H](C)N(c2ncnc3c2c(N2CCC2)cn3-c2cc(C#N)ccn2)C[C@H]1C` [Compound 173], the negative-log EC50 (pEC50) at Human TRPML2 is 5.70 to 6.30; on Human TRPML3, 6.30 to 7.00; on Human TRPML1 it was over 7.00.

For `CCOC(C)(C)C(=O)N1C[C@H](C)N(c2ncnc3c2c(-c2ccncc2)cn3-c2cc(C#N)ccn2)C[C@H]1C` [Compound 171, -(4-((2S,5R)-4-(2-ethoxy-2-methylpropanoyl)-2,5-dimethylpiperazin-1-yl)-5-(pyridin-4-yl)-7H-pyrrolo[2,3-d]pyrimidin-7-yl)isonicotinonitrile], the negative logarithm of the EC50 (pEC50) is under 5.70 on Human TRPML2, 5.70 to 6.30 at Human TRPML3 and 6.30 to 7.00 at Human TRPML1.

In the case of `CCOC(C)(C)C(=O)N1C[C@H](C)N(c2ncnc3c2c(C2CC2)cn3-c2cc(C#N)ccn2)C[C@H]1C` [Compound 172, 2-(5-cyclopropyl-4-((2S,5R)-4-(2-ethoxy-2-methylpropanoyl)-2,5-dimethylpiperazin-1-yl)-7H-pyrrolo[2,3-d]pyrimidin-7-yl)isonicotinonitrile], the values for the pEC50 at Human TRPML2, at Human TRPML3 and on Human TRPML1 were 5.70 to 6.30, 5.70 to 6.30 and over 7.00, respectively.

For `C[C@@H]1CN(c2ncnc3c2c(-c2ccncc2)cn3-c2cccc(OC(F)(F)F)c2)[C@@H](C)CN1C(=O)C(C)(C)O` [Compound 148, 1-((2R,5S)-2,5-dimethyl-4-(5-(pyridin-4-yl)-7-(3-(trifluoromethoxy)phenyl)-7H-pyrrolo[2,3-d]pyrimidin-4-yl)piperazin-1-yl)-2-hydroxy-2-methylpropan-1-one], the pEC50 was under 5.70 at Human TRPML2, under 5.70 at Human TRPML3 and 5.70 to 6.30 at Human TRPML1.

Take `C[C@@H]1CN(c2ncnc3c2c(-c2ccccc2)cn3-c2cc(C#N)ccn2)[C@@H](C)CN1C(=O)C(O)(C(F)(F)F)C(F)(F)F` [Compound 110, 2-(4-((2S,5R)-2,5-dimethyl-4-(3,3,3-trifluoro-2-hydroxy-2-(trifluoromethyl)propanoyl)piperazin-1-yl)-5-phenyl-7H-pyrrolo[2,3-d]pyrimidin-7-yl)isonicotinonitrile]: the negative logarithm of the EC50 (pEC50) is under 5.70 on Human TRPML2, 6.30 to 7.00 at Human TRPML3 and over 7.00 on Human TRPML1.

Take `C[C@@H]1CN(c2ncnc3c2c(-c2ccncc2)cn3-c2cc(C#N)ccn2)[C@@H](C)CN1C(=O)C1(O)CCCCC1` [Compound 151, 2-(4-((2S,5R)-4-(1-hydroxycyclohexane-1-carbonyl)-2,5-dimethylpiperazin-1-yl)-5-(pyridin-4-yl)-7H-pyrrolo[2,3-d]pyrimidin-7-yl)isonicotinonitrile]: the values for the pEC50 on Human TRPML2, at Human TRPML3 and at Human TRPML1 were 5.70 to 6.30, 6.30 to 7.00 and over 7.00, respectively.

`CCOC(C)(C)C(=O)N1C[C@H](C)N(c2ncnc3c2c(-c2ccccc2F)cn3-c2cc(C#N)ccn2)C[C@H]1C` [Compound 164, 2-(4-((2S,5R)-4-(2-ethoxy-2-methylpropanoyl)-2,5-dimethylpiperazin-1-yl)-5-(2-fluorophenyl)-7H-pyrrolo[2,3-d]pyrimidin-7-yl)isonicotinonitrile]: the pEC50 at Human TRPML2, at Human TRPML3 and at Human TRPML1 was over 7.00 each time.

Source of the values: patent publication US20260285866A1, “MODULATORS OF TRPML, THEIR COMPOSITIONS AND METHODS OF USE” (Caraway Therapeutics, Inc., priority 2024, published 2026).
